Assay results published in patent publication US20250296953A1, “3,4-THIAZOLO-STEROIDS AND METHODS OF MAKING AND USING THE SAME” (Arkansas State University - Jonesboro, priority 2018, published 2025).
Like-named read-outs stand apart in the source and are kept apart here.

Columns and labels:
HCT-15 (Colon Cancer) = experiment: NCI 60 one dose screen; type: cell-based, human
glioblastoma (SF-295) = experiment: NCI 60 five dose screen
NCI-H522 (NSCLC) = experiment: NCI 60 one dose screen; type: cell-based, human; details: Non-small Cell Lung Cancer
[1] = tested on: 60 different human tumor cell lines; details: five dose
SF-295 = experiment: NCI 60 one dose screen; type: cell-based, human; details: one dose; CNS Cancer; SF-295
RPMI-8226 = experiment: NCI 60 five dose screen
gliosarcoma (SF-539) = experiment: NCI 60 five dose screen

In the case of `C[C@]12CC[C@H]3[C@@H](CC=C4c5sc(Nc6ccccc6)nc5CC[C@@]43C)[C@@H]1CC[C@@H]2O` [IIIa.10, (1S,2R,13R,14S,17S,18S)-7-anilino-2,18-dimethyl-8-thia-6-azapentacyclo[11.7.0.02,10.05,9.014,18]icosa-5(9),6,10-trien-17-ol], the “Growth Percent” value (HCT-15 (Colon Cancer)) was −30.18%, the GI50 (glioblastoma (SF-295); Homo sapiens, SF-295) was 1.06 µM and the CC50 (glioblastoma (SF-295); Homo sapiens, SF-295, read-out: LC50) was 8.38 µM. The TGI (glioblastoma (SF-295); SF-295 (CNS Cancer), five dose) was 2.98E−6, the “Growth Percent” value (NCI-H522 (NSCLC)) was 25.77% and the TGI ([1]; 786-0 (Renal Cancer)) was 3.30E−6. For the same compound, the TGI ([1]; A498 (Renal Cancer)) was 5.66E−6, the TGI ([1]; A549/ATCC (Non-small Cell Lung Cancer)) was 6.02E−6 and the TGI ([1]; ACHN (Renal Cancer)) was 3.25E−6. It also gave a TGI ([1]; BT-549 (Breast Cancer)) of 4.31E−6, a TGI ([1]; CAKI-1 (Renal Cancer)) of 5.68E−6 and a TGI ([1]; CCRF-CEM (Leukemia)) of 2.71E−5. For the same compound, the TGI ([1]; COLO 205 (Colon Cancer)) was 5.61E−6, the TGI ([1]; DU-145 (Prostate Cancer)) was 3.62E−6 and the TGI ([1]; EKVX (Non-small Cell Lung Cancer)) was 9.26E−6. The TGI ([1]; HCC-2998 (Colon Cancer)) was 3.56E−6, the TGI ([1]; HCT-15 (Colon Cancer)) was 5.15E−6 and the TGI ([1]; HCT-116 (Colon Cancer)) was 3.01E−6. It also gave a TGI ([1]; HL-60(TB) (Leukemia)) of 6.87E−6, a TGI ([1]; HOP-62 (Non-small Cell Lung Cancer)) of 6.54E−6 and a TGI ([1]; HOP-92 (Non-small Cell Lung Cancer)) of 6.77E−6. It also gave a TGI ([1]; HS 578T (Breast Cancer)) of 1.72E−5, a TGI ([1]; HT29 (Colon Cancer)) of 4.45E−6 and a TGI ([1]; IGROV1 (Ovarian Cancer)) of 7.85E−6. It also gave a TGI ([1]; K-562 (Leukemia)) of 1.26E−5, a TGI ([1]; KM12 (Colon Cancer)) of 3.12E−6 and a TGI ([1]; LOX IMVI (Melanoma)) of 2.77E−6. For the same compound, the TGI ([1]; M14 (Melanoma)) was 4.27E−6, the TGI ([1]; MALME-3M (Melanoma)) was 5.89E−6 and the TGI ([1]; MCF7 (Breast Cancer)) was 4.73E−6. It also gave a TGI ([1]; MDA-MB-231/ATCC (Breast Cancer)) of 4.63E−6, a TGI ([1]; MDA-MB-435 (Melanoma)) of 7.03E−6 and a TGI ([1]; MDA-MB-468 (Breast Cancer)) of 3.38E−6. For the same compound, the TGI ([1]; MOLT-4 (Leukemia)) was 8.07E−6, the TGI ([1]; NCI-H23 (Non-small Cell Lung Cancer)) was 5.04E−6 and the TGI ([1]; NCI-H226 (Non-small Cell Lung Cancer)) was 5.57E−6. It also gave a TGI ([1]; NCI-H322M (Non-small Cell Lung Cancer)) of 1.11E−5, a TGI ([1]; NCI-H460 (Non-small Cell Lung Cancer)) of 4.04E−6 and a TGI ([1]; NCI-H522 (Non-small Cell Lung Cancer)) of 4.50E−6. It also gave a TGI ([1]; NCI/ADR-RES (Ovarian Cancer)) of 9.17E−5, a TGI ([1]; OVCAR-3 (Ovarian Cancer)) of 2.62E−6 and a TGI ([1]; OVCAR-4 (Ovarian Cancer)) of 1.54E−5. For the same compound, the TGI ([1]; OVCAR-5 (Ovarian Cancer)) was 7.86E−6, the TGI ([1]; OVCAR-8 (Ovarian Cancer)) was 1.49E−5 and the TGI ([1]; PC-3 (Prostate Cancer)) was 5.84E−6. It also gave a TGI ([1]; RXF 393 (Renal Cancer)) of 2.28E−6, a TGI ([1]; SF-268 (CNS Cancer)) of 3.32E−6 and a TGI ([1]; SK-MEL-2 (Melanoma)) of 5.64E−6. The TGI ([1]; SK-MEL-5 (Melanoma)) was 3.41E−6, the TGI ([1]; SK-MEL-28 (Melanoma)) was 3.99E−6 and the TGI ([1]; SK-OV-3 (Ovarian Cancer)) was 1.79E−5. The TGI ([1]; SN12C (Renal Cancer)) was 3.28E−6, the TGI ([1]; SNB-19 (CNS Cancer)) was 3.77E−6 and the TGI ([1]; SNB-75 (CNS Cancer)) was 3.05E−6. The TGI ([1]; SW-620 (Colon Cancer)) was 5.36E−6, the TGI ([1]; TK-10 (Renal Cancer)) was 6.63E−6 and the TGI ([1]; U251 (CNS Cancer)) was 2.79E−6. The TGI ([1]; UACC-62 (Melanoma)) was 3.96E−6, the TGI ([1]; UACC-257 (Melanoma)) was 6.68E−6 and the TGI ([1]; UO-31 (Renal Cancer)) was 3.05E−6. The “Growth Percent” value (SF-295) was 7.36%, the GI50 (RPMI-8226; Homo sapiens, RPMI-8226) was 0.465 µM and the CC50 (RPMI-8226; Homo sapiens, RPMI-8226, read-out: LC50) was greater than 100 µM. It also gave a TGI (RPMI-8226; RPMI-8226 (Leukemia), five dose) of 2.47E−6, a GI50 (gliosarcoma (SF-539); Homo sapiens, SF-539) of 1.19 µM and a CC50 (gliosarcoma (SF-539); Homo sapiens, SF-539, read-out: LC50) of 5.74 µM. It also gave a TGI (gliosarcoma (SF-539); SF-539 (CNS Cancer), five dose) of 2.62E−6.
